Counter-ions that a name gives are not always drawn. Like-named read-outs stand apart in the source and are kept apart here.
How the values were obtained:
5-HT1B receptor = target: T1, 5-HT1B receptor (Didelphis virginiana, UniProt P35404); experiment: Agonist activity: inhibition of forskolin-stimulated cAMP formation mediated by a 5-HT1B receptor in OK kidney epithelial cell line; format: cell-based
T1 construct: mediated by a 5-HT1B receptor, in an OK kidney epithelial cell line; endogenous in cells; host or cells: OK kidney epithelial cell line
T1 sequence (P35404 whole entry): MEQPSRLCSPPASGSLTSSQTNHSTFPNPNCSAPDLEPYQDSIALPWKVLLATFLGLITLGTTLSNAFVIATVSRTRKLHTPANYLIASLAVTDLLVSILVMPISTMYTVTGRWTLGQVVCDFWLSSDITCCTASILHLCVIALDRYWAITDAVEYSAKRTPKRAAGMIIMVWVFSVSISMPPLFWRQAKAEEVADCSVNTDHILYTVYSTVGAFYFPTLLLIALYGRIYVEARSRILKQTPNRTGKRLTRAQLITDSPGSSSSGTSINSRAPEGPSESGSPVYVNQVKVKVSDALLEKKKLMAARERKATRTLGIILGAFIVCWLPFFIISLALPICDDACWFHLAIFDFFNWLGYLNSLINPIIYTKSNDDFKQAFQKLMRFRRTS
Procedure: STUDY OF THE AGONIST ACTIVITY WITH RESPECT TO THE 5-HT1B RECEPTORS
The measurements were carried out with respect to the inhibition of the formation of cAMP stimulated by forskolin, mediated by a 5-HT1B receptor, in an OK kidney epithelial cell line as described elsewhere (P. J. Pauwels and C. Palmier, Neuropharmacology, awaiting publication).

human 5HT1Db receptor [1] = target: T2, human 5HT1Db receptor (Homo sapiens, UniProt P28222); experiment: Binding to cloned human 5HT1Db receptor; details: human cloned receptor; [3H] ligand 2 nM; read-out: Ki 5HT1Db
T2 sequence (P28222 whole entry): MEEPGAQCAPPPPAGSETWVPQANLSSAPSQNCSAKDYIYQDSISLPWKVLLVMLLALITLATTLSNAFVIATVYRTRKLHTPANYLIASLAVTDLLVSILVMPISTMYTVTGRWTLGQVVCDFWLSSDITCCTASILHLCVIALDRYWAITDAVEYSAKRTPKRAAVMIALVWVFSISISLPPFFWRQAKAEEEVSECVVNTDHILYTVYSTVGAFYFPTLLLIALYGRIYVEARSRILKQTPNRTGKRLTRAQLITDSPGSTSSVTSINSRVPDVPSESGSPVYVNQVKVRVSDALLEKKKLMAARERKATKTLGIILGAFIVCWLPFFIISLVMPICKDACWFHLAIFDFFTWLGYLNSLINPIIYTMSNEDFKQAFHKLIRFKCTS
Procedure: (§1) Human 5HT1Da and 5HT1Db receptors were cloned according to the sequences published by M. Hamblin and M. Metcalf, Mol. Pharmacol., 40, 143 (1991) and Weinshenk et al., Proc. Natl. Acad. Sci., 89, 3630 (1992).
(§2) The transient transfection and the stable transfection of the genes of these receptors was carried out in Cos-7 and CHO-K1 cell lines by using an electroporator.
(§3) The binding of the derivatives of the present invention with human 5HT1Da, 5HT1Db and 5HT1A receptors was studied according to the method described by P. Pauwels and C. Palmier (Neuropharmacology, 33, 67, 1994).
(§4) The incubation media for these binding measurements comprise 0.4 ml of cell membrane preparation, 0.05 ml of a tritiated ligand [[3H]-SCT (final concentration: 2 nM) for the 5HT1Da and 5HT1Db receptors and [3H]-80H-DPAT (final concentration: 1 nM) for the 5HT1A receptor] and 0.05 ml of the molecule to be tested (final concentrations from 0.1 nM to 1000 nM) or 10 μM (final concentration) of serotonin (5HT1Da and 5HT1Db) or 1 μM (final concentration) of spiroxatrin (5HT1A ).

human 5HT1Da receptor = human 5HT1Da receptor (Homo sapiens, UniProt P28221); experiment: Binding to cloned human 5HT1Da receptor; details: human cloned receptor; [3H] ligand 2 nM; read-out: Ki 5HT1Da
human 5HT1Da receptor, sequence (P28221 whole entry): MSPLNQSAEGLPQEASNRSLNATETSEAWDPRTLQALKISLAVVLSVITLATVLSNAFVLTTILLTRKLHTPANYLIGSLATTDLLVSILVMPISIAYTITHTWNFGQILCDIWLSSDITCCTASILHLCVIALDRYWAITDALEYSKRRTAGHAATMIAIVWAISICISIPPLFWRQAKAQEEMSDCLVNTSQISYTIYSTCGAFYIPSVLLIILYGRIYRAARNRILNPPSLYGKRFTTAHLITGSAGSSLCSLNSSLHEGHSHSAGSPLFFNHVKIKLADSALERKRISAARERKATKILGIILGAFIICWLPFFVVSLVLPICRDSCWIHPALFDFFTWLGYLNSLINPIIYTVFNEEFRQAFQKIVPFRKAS
Procedure: as §1, §2, §3, §4

human 5HT1Db receptor [2] = target: T2, human 5HT1Db receptor; experiment: cell-based; details: human 5HT1Db; CHO-K1 cells; read-out: EC50 (Inhibition of the 5HT1Db cyclase stimulated by forskolin)
Procedure: as §1, §2
The inhibition of the formation of cyclic AMP (stimulated by forskolin) mediated by the human 5HT1Db receptor was studied in CHO-K1 cells transfected by the receptor according to the technique described previously for the 5HT1B receptor (P. Pauwels and C. Palmier, Neuropharmacology, 33, 67, 1994).

5-HT1D receptors = experiment: Affinity for 5-HT1D receptors (3H-5HT binding, sheep caudate membranes); details: for Ratio 1A/1D (ratio of the IC50 values for the 5HT1A and 5HT1D receptors): selectivity 5-HT1D over 5-HT1A; for IC50: sheep caudate nuclei membranes, 3H-5HT, 25° C., 30 min
Procedure: STUDY OF THE AFFINITY FOR 5-HT1D RECEPTORS
This study is carried out according to the technique described by Pauwells et al. (Biochem. Pharmacol, 46, 535-538, 1993).
Preparation of the membranes
Sheep brains are removed in the local abattoir and transported in ice. The caudate nuclei are removed, weighed and homogenized with a Polytron for 20 sec (speed 6-7) in 20 volumes of Tris-HCl 50 mM, pH 7.7. The homogenate is centrifuged for 10 min at 48,000 g with an L5 50E centrifuge (Beckman).
The pellet, taken up in 20 volumes of Tris-HCl 50 mm, pH 7.7, is placed in a water bath at 37° C. for 10 min and then recentrifuged for 10 min at 48,000 g. The pellet then obtained is immediately frozen in fractions containing 0.5g of tissue.
The pellet is defrosted and homogenized with a Dounce in 80 volumes of Tris-HCl 50 mM, pH 7.7, containing 4 mM CaCl2, 10 μM of pargyline and 0.1% of ascorbic acid.
Affinity is produced at 25° C. by incubating for 30 min:
0.1 ml of buffer or 10 μM, as final concentration, of sumatriptan, in order to obtain the non-specific binding
0.1 ml of 3H-5HT (15 to 30 Ci:mM, New England Nuclear France).
The incubation is brought to an end by rapid filtration through GF/B filters and rinsing with 3 times 3 [illegible] ice-cold buffer, using a harvester manufactured by Brandel which makes it possible [illegible] to filter [illegible]samples. The filters are introduced into vials containing [illegible]ml of [illegible] [illegible] scintillant (Packard) and the radioactivity measured with a Tri-carb 4640 counter (Packard). The IC50 (concentration which inhibits the specific affinity by 50%) is determined graphically.

5-HT1A = target: T3, 5-HT1A (Rattus norvegicus, UniProt P19327); experiment: Affinity for 5-HT1A receptors (method of Peroutka); format: binding
T3 construct: from tissue; host or cells: rat frontal cortex (from the title of the cited method)
T3 sequence (P19327 1-422): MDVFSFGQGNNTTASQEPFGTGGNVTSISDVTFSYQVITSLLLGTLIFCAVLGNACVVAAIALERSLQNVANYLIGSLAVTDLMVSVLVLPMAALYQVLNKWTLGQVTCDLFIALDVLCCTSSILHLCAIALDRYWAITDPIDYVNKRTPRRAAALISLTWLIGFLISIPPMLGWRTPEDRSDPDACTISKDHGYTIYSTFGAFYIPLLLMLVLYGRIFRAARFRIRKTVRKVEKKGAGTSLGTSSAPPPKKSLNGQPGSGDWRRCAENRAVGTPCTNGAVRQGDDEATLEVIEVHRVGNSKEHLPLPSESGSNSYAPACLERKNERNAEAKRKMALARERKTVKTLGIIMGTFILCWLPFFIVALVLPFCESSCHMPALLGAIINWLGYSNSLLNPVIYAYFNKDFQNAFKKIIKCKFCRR
Procedure: The affinities of the various products which form part of this invention for 5HT1A and 5HT1B receptors were measured according to the techniques described in:
Peroutka S. J. Pharmacological differentiation and characterization of 5HT1A, 5HT1B and 5HT1C binding sites in rat frontal cortex. J. Neurochem., 45, 529-540, 1986.

[3] = rat frontal cortex (Peroutka method), read-out: IC50 5-HT1A mean

Compound	Ratio 1A/1D (ratio of the IC50 values for the 5HT1A and 5HT1D receptors) (5-HT1D receptors)	IC50 (5-HT1D receptors) [nM]	IC50 (5-HT1A; [3]) [nM]	other results
NCCc1c[nH]c2ccc(OCC(=O)N3CCN(c4ccc([N+](=O)[O-])cc4)CC3)cc12 [Example 1, 2-[3-(2-Aminoethyl)-1H-indol-5-yloxy]-1-[4-(4-nitrophenyl)piperazin-1-yl]ethanone hydrochloride]				EC50 (5-HT1B receptor): 0.3 to 1.2 nM; Ki (human 5HT1Db receptor [1]): 1 nM; Ki (human 5HT1Da receptor): 0.5 nM; EC50 (human 5HT1Db receptor [2]): 1.2 nM
NCCc1c[nH]c2ccc(OCC(=O)N3CCN(c4ccc(N)cc4)CC3)cc12 [Example 2, 2-[3-(2-Aminoethyl)-1H-indol-5-yloxy]-1-[4-(4-aminophenyl)piperazin-1-yl]ethanone hydrochloride]				EC50 (5-HT1B receptor): 0.3 to 1.2 nM
CC(=O)Nc1ccc(N2CCN(C(=O)COc3ccc4[nH]cc(CCN)c4c3)CC2)cc1 [Example 3, N-[4-(4-{2-[3-(2-Aminoethyl)-1H-indol-5-yloxy]acetyl}piperazin-1-yl)phenyl]acetamide hydrochloride]				EC50 (5-HT1B receptor): 0.3 to 1.2 nM
NCCc1c[nH]c2ccc(OCC(=O)N3CCN(c4ccc(NC(=O)c5ccccc5)cc4)CC3)cc12 [Example 4, N-[4-(4-{2-[3-(2-Aminoethyl)-1H-indol-5-yloxy]acetyl}piperazin-1-yl)phenyl]benzamide hydrochloride]	75	1	75	
CS(=O)(=O)Nc1ccc(N2CCN(C(=O)COc3ccc4[nH]cc(CCN)c4c3)CC2)cc1 [Example 5, N-[4-(4-{2-[3-(2-Aminoethyl)-1H-indol-5-yloxy]acetyl}piperazin-1-yl)phenyl]methanesulfonamide hydrochloride]				Ki (human 5HT1Db receptor [1]): 3.2 nM; Ki (human 5HT1Da receptor): 0.7 nM; EC50 (human 5HT1Db receptor [2]): 6.5 nM
CS(=O)(=O)N(c1ccc(N2CCN(C(=O)COc3ccc4[nH]cc(CCN)c4c3)CC2)cc1)S(C)(=O)=O [Example 6, N-[4-(4-{2-[3-(2-Aminoethyl)-1H-indol-5-yloxy]acetyl}piperazin-1-yl)phenyl](methanesulfonyl)methanesulfonamide hydrochloride]	18	4.3	79	
CCS(=O)(=O)Nc1ccc(N2CCN(C(=O)COc3ccc4[nH]cc(CCN)c4c3)CC2)cc1 [Example 7, N-[4-(4-{2-[3-(2-Aminoethyl)-1H-indol-5-yloxy]acetyl}piperazin-1-yl)phenyl]ethanesulfonamide hydrochloride]	28	1.6	44	
NCCc1c[nH]c2ccc(OCC(=O)N3CCN(c4ccc(NS(=O)(=O)c5cccs5)cc4)CC3)cc12 [Example 8, Thiophene-2-{N-[4-(4-{2-[3-(2-aminoethyl)-1H-indol-5-yloxy]acetyl}piperazin-1-yl)phenyl]sulfonamide hydrochloride]	22	1.2	26	
NCCc1c[nH]c2ccc(OCC(=O)N3CCN(c4ccc(N(S(=O)(=O)c5cccs5)S(=O)(=O)c5cccs5)cc4)CC3)cc12 [Example 9, N-[4-(4-{2-[3-(2-Aminoethyl)-1H-indol-5-yl-oxy]acetyl}piperazin-1-yl)phenyl](thiophene-2-sulfonyl)-thiophene-2-sulfonamide hydrochloride]			38	
Cc1noc(C)c1S(=O)(=O)Nc1ccc(N2CCN(C(=O)COc3ccc4[nH]cc(CCN)c4c3)CC2)cc1 [Example 10, 3,5-Dimethylisoxazole-4-{N-[4-(4-{2-[3-(2-aminoethyl)-1H-indol-5-yloxy]acetyl}-piperazin-1-yl)phenyl]sulfonamide hydrochloride]	20	1	20	
CCOC(=O)Nc1ccc(N2CCN(C(=O)COc3ccc4[nH]cc(CCN)c4c3)CC2)cc1 [Example 11, 2-[3-(2-Aminoethyl)-1H-indol-5-yloxy]-1-[4-(4-N-{ethoxycarbonyl}aminophenyl)piperazin-1-yl]-ethanone hydrochloride]	44	2.4	105	
NCCc1c[nH]c2ccc(OCC(=O)N3CCN(c4ccccc4[N+](=O)[O-])CC3)cc12 [Example 14, 2-[3-(2-Aminoethyl)-1H-indol-5-yloxy]-1-[4-(2-nitrophenyl)piperazin-1-yl)ethanone hydrochloride]	10	1		IC50 (5-HT1A): 9.5 nM
CS(=O)(=O)Nc1ccc(N2CCN(C(=O)CCCCCOc3ccc4[nH]cc(CCN)c4c3)CC2)cc1 [Example 59, N-[4-(4-{6-[3-(2-Aminoethyl)-1H-indol-5-yloxy]hexanoyl}piperazin-1-yl)phenyl]methane sulfonamide hydrochloride]				Ki (human 5HT1Db receptor [1]): 1.3 nM; Ki (human 5HT1Da receptor): 1.3 nM; EC50 (human 5HT1Db receptor [2]): 0.52 nM
NCCc1c[nH]c2ccc(O)cc12 [serotonin, reference compound]				blocking the formation of cAMP (in words) (5-HT1B receptor; OK kidney epithelial cell line, forskolin-stimulated): capable of effectively blocking the formation of cAMP
